Tested on: Lipopolysaccharide (LPS)
Assay: Displacement of BODIPY-TR cadaverine from Escherichia coli O111:B4 LPS at 10 uM measured for 100 sec by spectrofluorometry relative to control

H-LWKKIYRKWKRW-NH2 gave an Activity of 75%.
